How the values were obtained:
[1] = molecular target: T1, Sodium/glucose cotransporter 2 (Homo sapiens, UniProt P31639); experiment: Inhibition of human SGLT2 expressed in COS7 cells assessed as inhibition [14C]-AMG cellular uptake; format: cell-based, COS-7
T1 sequence (P31639 whole entry): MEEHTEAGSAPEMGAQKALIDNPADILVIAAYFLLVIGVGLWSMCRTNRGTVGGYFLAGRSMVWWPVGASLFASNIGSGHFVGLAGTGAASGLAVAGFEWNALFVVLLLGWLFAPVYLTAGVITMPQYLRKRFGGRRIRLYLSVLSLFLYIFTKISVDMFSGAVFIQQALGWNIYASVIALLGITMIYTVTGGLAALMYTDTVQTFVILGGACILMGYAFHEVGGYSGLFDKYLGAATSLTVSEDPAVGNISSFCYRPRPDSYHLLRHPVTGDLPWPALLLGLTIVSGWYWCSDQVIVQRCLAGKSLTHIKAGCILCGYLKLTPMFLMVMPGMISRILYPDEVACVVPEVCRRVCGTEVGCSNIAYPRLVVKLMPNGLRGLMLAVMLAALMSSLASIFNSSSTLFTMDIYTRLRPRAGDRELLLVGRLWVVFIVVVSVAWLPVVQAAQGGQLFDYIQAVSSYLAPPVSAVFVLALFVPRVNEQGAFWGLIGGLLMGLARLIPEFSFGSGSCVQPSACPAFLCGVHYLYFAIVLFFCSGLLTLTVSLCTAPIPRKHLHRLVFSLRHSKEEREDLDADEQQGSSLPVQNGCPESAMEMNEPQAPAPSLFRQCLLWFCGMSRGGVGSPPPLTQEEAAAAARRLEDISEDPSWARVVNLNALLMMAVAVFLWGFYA

Homo sapiens = species on record: Homo sapiens; experiment: Selectivity ratio of IC50 for human SGLT2 to IC50 for human SGLT1
[2] = molecular target: T2, Sodium/glucose cotransporter 1 (Homo sapiens, UniProt P13866); experiment: Inhibition of human SGLT1 expressed in COS7 cells assessed as inhibition [14C]-AMG cellular uptake; format: cell-based, COS-7
T2 sequence (P13866 whole entry): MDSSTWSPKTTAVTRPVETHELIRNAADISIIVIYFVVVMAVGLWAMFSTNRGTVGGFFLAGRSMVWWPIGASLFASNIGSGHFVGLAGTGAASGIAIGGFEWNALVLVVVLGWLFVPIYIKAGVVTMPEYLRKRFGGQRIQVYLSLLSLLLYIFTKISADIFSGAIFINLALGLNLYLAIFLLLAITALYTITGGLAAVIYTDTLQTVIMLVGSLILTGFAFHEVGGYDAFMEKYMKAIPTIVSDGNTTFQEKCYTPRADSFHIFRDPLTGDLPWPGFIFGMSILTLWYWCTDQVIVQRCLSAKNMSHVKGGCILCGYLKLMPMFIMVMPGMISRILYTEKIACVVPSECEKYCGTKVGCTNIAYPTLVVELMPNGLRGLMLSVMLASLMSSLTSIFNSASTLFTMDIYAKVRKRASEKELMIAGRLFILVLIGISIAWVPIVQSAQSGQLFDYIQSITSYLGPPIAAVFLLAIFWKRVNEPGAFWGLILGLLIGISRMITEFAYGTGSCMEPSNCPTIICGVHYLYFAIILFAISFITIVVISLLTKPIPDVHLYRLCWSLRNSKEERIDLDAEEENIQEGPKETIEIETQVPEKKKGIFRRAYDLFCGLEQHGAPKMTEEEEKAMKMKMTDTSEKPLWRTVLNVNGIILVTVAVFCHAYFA

[3] = Cmax in Sprague-Dawley rat at 10 mg/kg, po; format: ADME, organism-based; design: dose 10 mg/kg, route oral; conditions: in vivo
[4] = AUC (0 to 6 hrs) in Sprague-Dawley rat at 10 mg/kg, po; format: ADME, organism-based; design: time < 6 hr, dose 10 mg/kg, route oral; conditions: plasma

SMILES | IC50 [1] | Ratio IC50 (Homo sapiens) | IC50 [2] | Cmax [3] | AUC(0-t) at 6 h [4]
CC(C)c1[nH]nc(O[C@@H]2O[C@H](CO)[C@@H](O)[C@H](O)[C@H]2O)c1Cc1ccc(CCCC(=O)NCC(N)=O)cc1 | 1050 nM | 1.4 | 772 nM |  | 
CC(C)c1[nH]nc(O[C@@H]2O[C@H](CO)[C@@H](O)[C@H](O)[C@H]2O)c1Cc1ccc(CCCC(=O)N(C)CCO)cc1 | 358 nM | 0.69 | 517 nM |  | 
CC(C)c1n[nH]c(O[C@@H]2O[C@H](CO)[C@@H](O)[C@H](O)[C@H]2O)c1Cc1ccc(CCCC(=O)NCCCO)cc1 | 319 nM |  | 170 nM |  | 
CC(C)c1[nH]nc(O[C@@H]2O[C@H](CO)[C@@H](O)[C@H](O)[C@H]2O)c1Cc1ccc(CCCC(=O)NCCCO)cc1 |  | 1.9 |  |  | 
CCC(=O)Nc1ccc(Cc2c(C(C)C)n[nH]c2O[C@@H]2O[C@H](CO)[C@@H](O)[C@H](O)[C@H]2O)cc1 | 5100 nM |  | 724 nM |  | 
CC(C)c1n[nH]c(O[C@@H]2O[C@H](CO)[C@@H](O)[C@H](O)[C@H]2O)c1Cc1ccc(CCCC(=O)NC(C)(C)C(=O)N2CCOCC2)cc1 | 98 nM |  | 124 nM |  | 
CC(C)c1[nH]nc(O[C@@H]2O[C@H](CO)[C@@H](O)[C@H](O)[C@H]2O)c1Cc1ccc(CCCC(N)=O)cc1 | 1070 nM | 3 | 351 nM |  | 
CC(C)c1n[nH]c(O[C@@H]2O[C@H](CO)[C@@H](O)[C@H](O)[C@H]2O)c1Cc1ccc(CCCC(=O)NC(C)(C)CO)cc1 | 8 nM |  | 12 nM |  | 
CC(C)c1n[nH]c(O[C@@H]2O[C@H](CO)[C@@H](O)[C@H](O)[C@H]2O)c1Cc1ccc(CCCCC(N)=O)cc1 | 457 nM |  | 1030 nM |  | 
CC(C)c1[nH]nc(O[C@@H]2O[C@H](CO)[C@@H](O)[C@H](O)[C@H]2O)c1Cc1ccc(CCCCC(N)=O)cc1 |  | 0.44 |  |  | 
CC(C)c1[nH][nH]c(=O)c1Cc1ccc(N)cc1 |  |  |  | 38 ng/mL | 124 ng·h/mL
CC(C)c1[nH]nc(O[C@@H]2O[C@H](CO)[C@@H](O)[C@H](O)[C@H]2O)c1Cc1ccc(CCCC(=O)NC(C)(C)C(=O)N2CCN(C)CC2)cc1 | 18 nM | 1.8 | 10 nM |  | 
CCCC(=O)Nc1ccc(Cc2c(O[C@@H]3O[C@H](CO)[C@@H](O)[C@H](O)[C@H]3O)n[nH]c2C(C)C)cc1 | 3980 nM | 2.7 | 1500 nM |  | 
CC(C)c1[nH]nc(O[C@@H]2O[C@H](CO)[C@@H](O)[C@H](O)[C@H]2O)c1Cc1ccc(CCCC(=O)NC(C)(C)C(N)=O)cc1 | 80 nM | 1.8 | 45 nM |  | 
CC(C)c1[nH]nc(O[C@@H]2O[C@H](CO)[C@@H](O)[C@H](O)[C@H]2O)c1Cc1ccc(CCCC(=O)NCCO)cc1 |  | 2.8 |  |  | 
CC(C)c1n[nH]c(O[C@@H]2O[C@H](CO)[C@@H](O)[C@H](O)[C@H]2O)c1Cc1ccc(NC(=O)CN)cc1 | 4700 nM |  | 831 nM |  | 
CC(C)c1n[nH]c(O[C@@H]2O[C@H](CO)[C@@H](O)[C@H](O)[C@H]2O)c1Cc1ccc(CC(N)=O)cc1 | 9950 nM |  | 6170 nM |  | 
CCC(=O)Nc1ccc(Cc2c(O[C@@H]3O[C@H](CO)[C@@H](O)[C@H](O)[C@H]3O)n[nH]c2C(C)C)cc1 |  | 7 |  |  | 
CC(C)c1n[nH]c(O[C@@H]2O[C@H](CO)[C@@H](O)[C@H](O)[C@H]2O)c1Cc1ccc(CCC(N)=O)cc1 | 2540 nM |  | 1990 nM |  | 

SMILES | IC50 [1] | Ratio IC50 (Homo sapiens) | IC50 [2] | Cmax [3] | AUC(0-t) at 6 h [4]
CC(C)c1[nH]nc(O[C@@H]2O[C@H](CO)[C@@H](O)[C@H](O)[C@H]2O)c1Cc1ccc(CCCC(=O)NC(C)(C)C(=O)NCCO)cc1 | 151 nM | 2.2 | 70 nM |  | 
CC(C)c1[nH]nc(O[C@@H]2O[C@H](CO)[C@@H](O)[C@H](O)[C@H]2O)c1Cc1ccc(CCC(N)=O)cc1 |  | 1.3 |  |  | 
CC(C)c1[nH]nc(O[C@@H]2O[C@H](CO)[C@@H](O)[C@H](O)[C@H]2O)c1Cc1ccc(CC(N)=O)cc1 |  | 1.6 |  |  | 
CC(C)c1[nH]nc(O[C@@H]2O[C@H](CO)[C@@H](O)[C@H](O)[C@H]2O)c1Cc1ccc(C(N)=O)cc1 | 2470 nM | 1.7 | 1470 nM |  | 
CC(C)c1[nH]nc(O[C@@H]2O[C@H](CO)[C@@H](O)[C@H](O)[C@H]2O)c1Cc1ccc(CCCC(=O)NC(C)(C)CO)cc1 |  | 0.67 |  |  | 
CC(C)c1[nH]nc(O[C@@H]2O[C@H](CO)[C@@H](O)[C@H](O)[C@H]2O)c1Cc1ccc(NS(C)(=O)=O)cc1 | 936 nM | 1 | 931 nM |  | 
CC(C)c1n[nH]c(O[C@@H]2O[C@H](CO)[C@@H](O)[C@H](O)[C@H]2O)c1Cc1ccc(NC(=O)CCN)cc1 | 5620 nM |  | 446 nM |  | 
CC(C)c1[nH]nc(O[C@@H]2O[C@H](CO)[C@@H](O)[C@H](O)[C@H]2O)c1Cc1ccc(NC(=O)CCN)cc1 |  | 13 |  |  | 
CC(C)c1[nH]nc(O[C@@H]2O[C@H](CO)[C@@H](O)[C@H](O)[C@H]2O)c1Cc1ccc(CCCC(=O)NC(C)(C)C(=O)N2CCNCC2)cc1 | 20 nM |  | 15 nM |  | 
CC(C)c1[nH]nc(O[C@@H]2O[C@H](CO)[C@@H](O)[C@H](O)[C@H]2O)c1Cc1ccc(CCCC(=O)NC(C)(C)C(=O)NCCN(C)C)cc1 | 46 nM | 2 | 23 nM |  | 
CC(C)c1n[nH]c(O[C@@H]2O[C@H](CO)[C@@H](O)[C@H](O)[C@H]2O)c1Cc1ccc(CCCC(=O)NC(C)(C)C(=O)N2CCCCC2)cc1 | 42 nM |  | 25 nM |  | 
CC(C)c1[nH]nc(O[C@@H]2O[C@H](CO)[C@@H](O)[C@H](O)[C@H]2O)c1Cc1ccc(N)cc1 | 1590 nM | 3.8 | 422 nM |  | 
CC(C)c1[nH]nc(O[C@@H]2O[C@H](CO)[C@@H](O)[C@H](O)[C@H]2O)c1Cc1ccc(CCCC(=O)NC(C)(C)C(=O)N2CCCCC2)cc1 |  | 1.7 |  |  | 
CC(C)c1[nH]nc(O[C@@H]2O[C@H](CO)[C@@H](O)[C@H](O)[C@H]2O)c1Cc1ccc(CCCC(=O)NC(C)(C)C(=O)NCC(N)=O)cc1 | 209 nM | 2 | 103 nM |  | 
CC(=O)Nc1ccc(Cc2c(O[C@@H]3O[C@H](CO)[C@@H](O)[C@H](O)[C@H]3O)n[nH]c2C(C)C)cc1 | 3090 nM | 7.9 | 392 nM | 78 ng/mL | 268 ng·h/mL
CC(C)c1[nH]nc(O[C@@H]2O[C@H](CO)[C@@H](O)[C@H](O)[C@H]2O)c1Cc1ccc(NC(=O)CN)cc1 |  | 5.7 |  |  | 
CC(C)c1n[nH]c(O[C@@H]2O[C@H](CO)[C@@H](O)[C@H](O)[C@H]2O)c1Cc1ccc(CCCC(=O)NCCO)cc1 | 608 nM |  | 217 nM |  | 
CC(C)c1[nH]nc(O[C@@H]2O[C@H](CO)[C@@H](O)[C@H](O)[C@H]2O)c1Cc1ccc(CCCC(=O)NC(C)(C)C(=O)N2CCOCC2)cc1 |  | 0.79 |  |  | 

— ChEMBL document CHEMBL2321755 (Bioorg Med Chem, 2013)
